From patent US10495796B2, “Near-infrared cut filter” (AGC INC., priority 2012, dated 2019)
Each block holds one molecule with its values, some of them ahead of it.

Legend:
[1] = Absorption characteristics: transmission spectrum of near-infrared absorbing layer of NIR filter (UV-visible spectrophotometer); format: physicochemical
Description: Further, the transmittance of the near-infrared absorbing layer can be measured by using an ultraviolet visible light spectrophotometer. For example, when the near-infrared absorbing layer is provided on a glass substrate, the transmittance is calculated by subtracting the transmittance of only the glass substrate. Note that the transmittance of light of the near-infrared absorbing layer refers to, unless otherwise stated, a ratio to light incident from a direction orthogonal to a main surface of a sample, the ratio of this light traveling straight inside the sample and transmitted to an opposite side. Further, when the transmittance is measured by making light incident from a direction other than the direction orthogonal to the main surface of the sample in the measurement of transmittance of light, an angle made by a straight line indicating the direction of the incident light to a line orthogonal to the main surface is called an incident angle.
In the condition (ii-3), the value calculated by nd(B)×(λa−λc) (hereinafter, this value may also be described as “Is value”) is a value to be an index indicating steepness of the absorption curve in the vicinity of the boundary between the visible light region and the near-infrared region with respect to a transmission spectrum of the near-infrared absorbing layer. When this value is 115 or less, the absorption curve in the vicinity of the boundary between the visible light region and the near-infrared region is steep with respect to the near-infrared absorbing layer, which can be said as preferable for the NIR filter.
That is, with respect to the transmission spectrum of the near-infrared absorbing layer, the smaller the difference (λa−λc) between the shortest wavelength λa with transmittance of 1% in the region of 650 nm to 800 nm and the wavelength λc with transmittance of 70% on a shorter wavelength side than the λa, the steeper the absorption curve in the vicinity of the boundary between the visible light region and the near-infrared region. Here, λa−λc also depends on a wavelength width having transmittance of 1% or less (λb−λa; λb is the longest wavelength with transmittance of 1% in the wavelength region of 650 nm to 800 nm). Accordingly, in order to compare and evaluate the steepness of the absorption curve in the above region of the transmission spectrum of the near-infrared absorbing layer, λb−λa is fixed to 30 nm. That is, λb−λa of the near-infrared absorbing layer which the present filter has is not limited to 30 nm.
Further, in the Is value, (λa−λc) is multiplied by the refractive index nd(B) of the transparent resin (B) contained in the near-infrared absorbing layer as a coefficient. This is to standardize the difference in steepness among resins.
Regarding transmittance (%/nm) of the NIR filters 1 to 109 obtained above, transmission spectra were measured and calculated by using an ultraviolet visible light spectrophotometer (U-4100 type spectrophotometer made by Hitachi High-Technologies Corporation). Analysis results of transmission spectra of the near-infrared absorbing layers which the NIR filters have are presented in Table 4, Table 5 and Table 6 for the NIR filters 1 to 25, 26 to 51, 52 to 75, respectively, and are presented in Table 7 and Table 8 for the NIR filters 76 to 94, 95 to 109, respectively. In Table 4 to Table 8, the ratios (parts by mass) of dyes to 100 parts by mass of the transparent resin (B) and film thicknesses of the near-infrared absorbing layers are described together.
Further, conditions of preferred transmission spectra of the near-infrared absorbing layers in the present filter and Is values obtained by the formula: nd(B)×(λa-λc) described in above (ii-3) are described in Table 4 to Table 8 together with λa in the condition (ii-1) and λb-λa in the condition (ii-2). Note that values described in Table 4 to Table 8 are values obtained by subtracting transmittance of a glass plate from transmittance of an NIR filter. […]

[2] = Solubility of dye to organic solvent; format: physicochemical; conditions: 50° C., mass % of the dye to the mass of the entire solution; for Solubility to organic solvent: MIBK: methyl isobutyl ketone
Description: Regarding the dyes (A11-1) to (A11-10) and (A11-20) to (A11-27) obtained above, solubility to organic solvent was evaluated as follows.
Three kinds of solvents, cyclohexanone, methyl isobutyl ketone (MIBK), toluene, were used as the organic solvent in the solubility test. Note that in Table 3, % is mass % of the dye to the mass of the entire solution. Further, the temperature of each organic solvent in the solubility test was 50° C.

[3] = transparent resin acrylic resin BR50, nd(B) 1.56, film thickness 2.3 μm
[4] = transparent resin polycarbonate EP5000, nd(B) 1.63, film thickness 2.4 μm
[5] = transparent resin polycarbonate SP3810, nd(B) 1.63, film thickness 1.0 μm
[6] = transparent resin polycarbonate SP3810, nd(B) 1.63, film thickness 2.8 μm
[7] = transparent resin polycarbonate SP1516, nd(B) 1.60, film thickness 0.9 μm

430 nm to 600 nm Average transmittance [1, 3]: 93.7%
Is value (nd(B)×(λa-λc)) [1, 3]: 132.7
λa [1, 3]: 688 nm
λa − λc [1, 3]: 85 nm
λb [1, 3]: 718 nm
λb − λa [1, 3]: 30 nm
λc [1, 3]: 603 nm
λmax [1, 3]: 705 nm
430 nm to 600 nm Average transmittance [1, 4]: 95.9%
Is value (nd(B)×(λa-λc)) [1, 4]: 120.8
λa [1, 4]: 694 nm
λa − λc [1, 4]: 69 nm
λb [1, 4]: 724 nm
λb − λa [1, 4]: 30 nm
λc [1, 4]: 620 nm
λmax [1, 4]: 710 nm
430 nm to 600 nm Average transmittance [1, 5]: 95.2%
Is value (nd(B)×(λa-λc)) [1, 5]: 122.6
λa [1, 5]: 693 nm
λa − λc [1, 5]: 75 nm
λb [1, 5]: 723 nm
λb − λa [1, 5]: 30 nm
λc [1, 5]: 618 nm
λmax [1, 5]: 710 nm
430 nm to 600 nm Average transmittance [1, 6]: 95.4%
Is value (nd(B)×(λa-λc)) [1, 6]: 119.3
λa [1, 6]: 694 nm
λa − λc [1, 6]: 73 nm
λb [1, 6]: 724 nm
λb − λa [1, 6]: 30 nm
λc [1, 6]: 621 nm
λmax [1, 6]: 710 nm
Solubility to organic solvent: Cyclohexanone [2]: 5.00% mass %
Solubility to organic solvent: MIBK [2]: 1.00% mass %
Solubility to organic solvent: Toluene [2]: 5.00% mass %
Compound: CCCCCCCC(=O)Nc1cc2c(cc1C1=C([O-])C(=c3cc4c(cc3NC(=O)CCCCCCC)=[N+](C)C(C)C4(C)C)C1=O)C(C)(C)C(C)N2C (stereo not drawn) [Example A11-24, reference compound]

430 nm to 600 nm Average transmittance [1, 3]: 94.5%
Is value (nd(B)×(λa-λc)) [1, 3]: 129.6
λa [1, 3]: 688 nm
λa − λc [1, 3]: 83 nm
λb [1, 3]: 718 nm
λb − λa [1, 3]: 30 nm
λc [1, 3]: 605 nm
λmax [1, 3]: 705 nm
430 nm to 600 nm Average transmittance [1, 4]: 95.5%
Is value (nd(B)×(λa-λc)) [1, 4]: 120.8
λa [1, 4]: 693 nm
λa − λc [1, 4]: 69 nm
λb [1, 4]: 723 nm
λb − λa [1, 4]: 30 nm
λc [1, 4]: 619 nm
λmax [1, 4]: 710 nm
430 nm to 600 nm Average transmittance [1, 7]: 95.6%
Is value (nd(B)×(λa-λc)) [1, 7]: 124.8
λa [1, 7]: 690 nm
λa − λc [1, 7]: 78 nm
λb [1, 7]: 720 nm
λb − λa [1, 7]: 30 nm
λc [1, 7]: 612 nm
λmax [1, 7]: 707 nm
430 nm to 600 nm Average transmittance [1, 5]: 94.6%
Is value (nd(B)×(λa-λc)) [1, 5]: 122.6
λa [1, 5]: 693 nm
λa − λc [1, 5]: 75 nm
λb [1, 5]: 723 nm
λb − λa [1, 5]: 30 nm
λc [1, 5]: 618 nm
λmax [1, 5]: 710 nm
430 nm to 600 nm Average transmittance [1, 6]: 95.3%
Is value (nd(B)×(λa-λc)) [1, 6]: 119.3
λa [1, 6]: 694 nm
λa − λc [1, 6]: 73 nm
λb [1, 6]: 724 nm
λb − λa [1, 6]: 30 nm
λc [1, 6]: 621 nm
λmax [1, 6]: 710 nm
Solubility to organic solvent: Cyclohexanone [2]: 3.00% mass %
Solubility to organic solvent: MIBK [2]: 1.00% mass %
Solubility to organic solvent: Toluene [2]: 10%< mass %
Compound: CCCCCCCCCCCC(=O)Nc1cc2c(cc1C1=C([O-])C(=c3cc4c(cc3NC(=O)CCCCCCCCCCC)=[N+](C)C(C)C4(C)C)C1=O)C(C)(C)C(C)N2C (stereo not drawn) [Example A11-25, reference compound]

430 nm to 600 nm Average transmittance [1, 3]: 95.1%
Is value (nd(B)×(λa-λc)) [1, 3]: 110.9
λa [1, 3]: 689 nm
λa − λc [1, 3]: 71 nm
λb [1, 3]: 719 nm
λb − λa [1, 3]: 30 nm
λc [1, 3]: 618 nm
λmax [1, 3]: 706 nm
430 nm to 600 nm Average transmittance [1, 4]: 96.5%
Is value (nd(B)×(λa-λc)) [1, 4]: 111.0
λa [1, 4]: 694 nm
λa − λc [1, 4]: 68 nm
λb [1, 4]: 724 nm
λb − λa [1, 4]: 30 nm
λc [1, 4]: 626 nm
λmax [1, 4]: 711 nm
430 nm to 600 nm Average transmittance [1, 5]: 97.3%
Is value (nd(B)×(λa-λc)) [1, 5]: 112.8
λa [1, 5]: 694 nm
λa − λc [1, 5]: 69 nm
λb [1, 5]: 724 nm
λb − λa [1, 5]: 30 nm
λc [1, 5]: 625 nm
λmax [1, 5]: 706 nm
430 nm to 600 nm Average transmittance [1, 6]: 96%
Is value (nd(B)×(λa-λc)) [1, 6]: 112.8
λa [1, 6]: 695 nm
λa − λc [1, 6]: 69 nm
λb [1, 6]: 725 nm
λb − λa [1, 6]: 30 nm
λc [1, 6]: 626 nm
λmax [1, 6]: 711 nm
Solubility to organic solvent: Cyclohexanone [2]: 10%< mass %
Solubility to organic solvent: MIBK [2]: 2.50% mass %
Solubility to organic solvent: Toluene [2]: 10%< mass %
Compound: CCCC(CCC)C(=O)Nc1cc2c(cc1C1=C([O-])C(=c3cc4c(cc3NC(=O)C(CCC)CCC)=[N+](C)C(C)C4(C)C)C1=O)C(C)(C)C(C)N2C (stereo not drawn) [Example A11-1]

430 nm to 600 nm Average transmittance [1, 3]: 93.1%
Is value (nd(B)×(λa-λc)) [1, 3]: 142.1
λa [1, 3]: 687 nm
λa − λc [1, 3]: 91 nm
λb [1, 3]: 717 nm
λb − λa [1, 3]: 30 nm
λc [1, 3]: 596 nm
λmax [1, 3]: 704 nm
430 nm to 600 nm Average transmittance [1, 4]: 95.6%
Is value (nd(B)×(λa-λc)) [1, 4]: 122.4
λa [1, 4]: 693 nm
λa − λc [1, 4]: 68 nm
λb [1, 4]: 723 nm
λb − λa [1, 4]: 30 nm
λc [1, 4]: 618 nm
λmax [1, 4]: 710 nm
430 nm to 600 nm Average transmittance [1, 7]: 94.5%
Is value (nd(B)×(λa-λc)) [1, 7]: 126.4
λa [1, 7]: 690 nm
λa − λc [1, 7]: 79 nm
λb [1, 7]: 720 nm
λb − λa [1, 7]: 30 nm
λc [1, 7]: 611 nm
λmax [1, 7]: 706 nm
430 nm to 600 nm Average transmittance [1, 5]: 93.6%
Is value (nd(B)×(λa-λc)) [1, 5]: 129.1
λa [1, 5]: 693 nm
λa − λc [1, 5]: 79 nm
λb [1, 5]: 723 nm
λb − λa [1, 5]: 30 nm
λc [1, 5]: 614 nm
λmax [1, 5]: 710 nm
430 nm to 600 nm Average transmittance [1, 6]: 95.0%
Is value (nd(B)×(λa-λc)) [1, 6]: 124.2
λa [1, 6]: 694 nm
λa − λc [1, 6]: 76 nm
λb [1, 6]: 724 nm
λb − λa [1, 6]: 30 nm
λc [1, 6]: 618 nm
λmax [1, 6]: 710 nm
Solubility to organic solvent: Cyclohexanone [2]: <1.0% mass %
Solubility to organic solvent: MIBK [2]: <1.0% mass %
Solubility to organic solvent: Toluene [2]: <1.0% mass %
Compound: CC(=O)Nc1cc2c(cc1C1=C([O-])C(=c3cc4c(cc3NC(C)=O)=[N+](C)C(C)C4(C)C)C1=O)C(C)(C)C(C)N2C (stereo not drawn) [Example A11-20, reference compound]
